Source: US10227329B2, “Compounds useful for treating disorders related to RET” (BLUEPRINT MEDICINES CORPORATION, priority 2016, dated 2019)

What was measured:
wild type RET = wild type RET (Homo sapiens (Human), UniProt P07949); experiment: RET Wild Type Assay at KM (Caliper electrophoretic mobility shift); type: biochemical; details: 25 μM ATP (KM)
RET V804L = RET V804L (Homo sapiens (Human), UniProt P07949, V804L); experiment: RET V804L Gatekeeper Mutant Assay at KM (Caliper electrophoretic mobility shift); type: biochemical; details: 10 μM ATP (KM), read-out: V480L Mutant
RET V804L, sequence (P07949 29-1114 V804L): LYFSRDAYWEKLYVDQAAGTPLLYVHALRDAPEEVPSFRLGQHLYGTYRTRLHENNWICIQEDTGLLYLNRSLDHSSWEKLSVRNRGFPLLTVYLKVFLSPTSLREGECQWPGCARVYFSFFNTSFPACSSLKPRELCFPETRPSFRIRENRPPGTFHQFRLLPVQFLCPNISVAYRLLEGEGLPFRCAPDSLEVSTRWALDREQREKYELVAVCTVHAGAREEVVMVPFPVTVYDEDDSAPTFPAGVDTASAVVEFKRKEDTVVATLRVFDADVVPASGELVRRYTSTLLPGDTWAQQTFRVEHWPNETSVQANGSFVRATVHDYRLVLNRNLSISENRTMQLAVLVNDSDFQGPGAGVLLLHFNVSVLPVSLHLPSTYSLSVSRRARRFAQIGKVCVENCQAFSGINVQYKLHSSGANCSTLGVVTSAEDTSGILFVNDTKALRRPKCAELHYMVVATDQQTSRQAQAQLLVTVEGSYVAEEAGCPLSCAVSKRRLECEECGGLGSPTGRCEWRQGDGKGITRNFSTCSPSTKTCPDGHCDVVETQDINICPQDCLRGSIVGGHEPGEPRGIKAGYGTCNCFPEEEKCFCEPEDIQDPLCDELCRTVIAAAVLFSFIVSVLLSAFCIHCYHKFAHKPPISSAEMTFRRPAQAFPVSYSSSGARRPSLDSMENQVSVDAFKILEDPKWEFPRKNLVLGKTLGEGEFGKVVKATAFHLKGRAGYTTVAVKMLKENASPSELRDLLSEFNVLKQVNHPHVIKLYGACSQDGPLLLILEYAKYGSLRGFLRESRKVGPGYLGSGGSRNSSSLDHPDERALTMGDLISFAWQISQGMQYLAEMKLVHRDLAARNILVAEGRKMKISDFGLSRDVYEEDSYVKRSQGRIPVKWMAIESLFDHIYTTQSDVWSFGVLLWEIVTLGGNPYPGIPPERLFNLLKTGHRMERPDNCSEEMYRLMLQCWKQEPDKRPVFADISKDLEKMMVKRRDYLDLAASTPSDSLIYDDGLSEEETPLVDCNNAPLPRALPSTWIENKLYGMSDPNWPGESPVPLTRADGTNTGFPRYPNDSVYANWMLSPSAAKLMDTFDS

wild type RET, sequence (P07949 29-1114): as the sequence (P07949 29-1114 V804L) above, with L776V counted along it

| IC50 (wild type RET) [nM] | IC50 (RET V804L) [nM] | Compound |
| --- | --- | --- |
| < 10 | < 10 | Cc1cc(Nc2cc(C3CC3)[nH]n2)nc(N2CCC(C)(C(=O)N[C@@H](C)c3ccc(-n4cc(F)cn4)nc3)CC2)c1 [Compound 225] |
| < 10 | < 10 | CCOC1(C(=O)N[C@@H](C)c2ccc(-n3cc(F)cn3)nc2)CN(c2cc(C)cc(Nc3cc(C)[nH]n3)n2)C1 [Compound 194, (S)-3-ethoxy-N-(1-(6-(4-fluoro-1H-pyrazol-1-yl)pyridin-3-yl)ethyl)-1-(4-methyl-6-((5-methyl-1H-pyrazol-3-yl)amino)pyridin-2-yl)azetidine-3-carboxamide] |
| < 10 | < 10 | Cc1cc(N2CCC(CC#N)(C(=O)N[C@@H](C)c3ccc(-n4cc(F)cn4)nc3)CC2)nc(Nc2cc(C)[nH]n2)n1 [Compound 224] |
| < 10 | < 10 | Cc1cc(Nc2cc(C)c(C#N)c(N3CC(F)(C(=O)N[C@@H](C)c4ccc(-n5cc(F)cn5)nc4)C3)n2)n[nH]1 [Compound 189] |
| < 10 | < 10 | COC1(C(=O)N[C@@H](C)c2cnc(-n3cc(F)cn3)cn2)CCN(c2nc(C)cc(Nc3cc(C)[nH]n3)n2)CC1 [Compound 221] |
| < 10 | < 10 | Cc1cc(Nc2cc(C)[nH]n2)nc(N2C[C@H](C(=O)N[C@@H](C)c3ccc(-n4cc(F)cn4)nc3)[C@H]2C)n1 [Compound 144] |

Further lines, the compound ahead of its results:

| Compound | IC50 (wild type RET) [nM] | IC50 (RET V804L) [nM] |
| --- | --- | --- |
| Cc1cc(Nc2cc(C)[nH]n2)nc(N2CC(F)(C(=O)NCc3ccc(-n4cccn4)nc3)C2)c1 [Compound 111] | < 10 | < 10 |
| COC1(C(=O)NCc2ccc(-n3ccc(C4CC4)n3)nc2)CN(c2nc(C)cc(Nc3cc(C)[nH]n3)n2)C1 [Compound 179] | < 10 | < 10 |
| Cc1cc(Nc2cc(C)[nH]n2)nc(N2CCC(O)(C(=O)NCc3ccccc3)CC2)n1 [Compound 103] | > 100 | > 100 |
| COC1(C(=O)NCc2ccc(-n3cccn3)nc2)CN(c2nc(Nc3cc(C)[nH]n3)cc(C)c2F)C1 [Compound 146] | < 10 | < 10 |
| COC1(C(=O)NCc2ccc(-n3cc(C4CC4)cn3)nc2)CN(c2nc(C)cc(Nc3cc(C)[nH]n3)n2)C1 [Compound 178] | < 10 | < 10 |
| COC1(C(=O)NCc2ccc(-n3cc(F)cn3)nc2)CN(c2cc(C(F)F)cc(Nc3cc(C)[nH]n3)n2)C1 [Compound 208] | < 10 | < 10 |
| COC1(C(=O)NCc2cnc(-n3ccc(C(F)F)n3)cn2)CN(c2nc(C)cc(Nc3cc(C)[nH]n3)n2)C1 [Compound 205] | 10 to 100 | < 10 |
| Cc1cc(Nc2cc(C)[nH]n2)nc(N2CCC(F)(C(=O)NCc3ccc(-n4cccn4)nc3)CC2)n1 [Compound 141] | < 10 | < 10 |
| Cc1cc(Nc2cc(C)c(C#N)c(N3CC(F)(C(=O)NCc4ccc(-n5cc(F)cn5)nc4)C3)n2)n[nH]1 [Compound 165] | < 10 | < 10 |
| COC1(C(=O)N[C@@H]2CCN(c3ccccn3)C2)CCN(c2nc(C)cc(Nc3cc(C)[nH]n3)n2)CC1 [Compound 147] | 10 to 100 | 10 to 100 |
| COC1(C(=O)NCc2ccc(-n3ccc(C)n3)nc2)CN(c2nc(C)cc(Nc3cc(C)[nH]n3)n2)C1 [Compound 137] | < 10 | < 10 |
| COC1(C(=O)NCc2ccc(-n3nc(C)cc3C)nc2)CCN(c2cc(C)cc(Nc3cc(C)[nH]n3)n2)CC1 [Compound 211] | < 10 | < 10 |
| COC1(C(=O)NCc2ccccc2)CCN(c2nc(C)cc(Nc3cc(C)[nH]n3)n2)CC1 [Compound 104] | > 100 | 10 to 100 |
